Drawing on patent publication US20240109924A1, “IP4-4,6 SUBSTITUTED DERIVATIVE COMPOUNDS” (SANIFIT THERAPEUTICS, S.A., priority 2021, published 2024), this text covers EC50 for twelve compounds.

The nature of the test: In vitro inhibition of calcium phosphate crystallization in human plasma (spectrophotometric assay). The format is biochemical. The following applies: 0-100 μM, 1.5 mM phosphate, 12.5 mM calcium, pH 7.4, absorbance 550 nm, slope 6-24 min, read-out: Relative Potency. How it is done: The in vitro efficacy of the IP4-4,6 substituted derivatives (e.g., Compounds 1 to 53) of the invention on the inhibition of calcium phosphate crystallization in human plasma samples was evaluated according to a spectrophotometric assay previously described in the art (Ferrer M, et al., Sci Rep 2017; 7:6858, doi:10.1038/s41598-017-07203-x).
A 96-well plate was employed. Plasma was spiked (1 volume of the IP4-4,6 substituted derivatives of the invention per 19 volumes of plasma) with increasing concentrations of the derivatives in the range of 0-100 μM. Plasma was then centrifuged at 10,000 g at rt and subsequently mixed with a mixture of 5 mM hydrogen phosphate and 41.67 mM calcium to attain final concentrations of 1.5 mM phosphate and 12.5 mM calcium, respectively. All reagent solutions were filtered, and pH adjusted to 7.4.
Crystallization of calcium phosphate was monitored spectrophotometrically for 30 min at rt by measuring the increments in absorbance at 550 nm using the Biotek Powerwave XS Microplate spectrophotometer (BioTek Instruments, Inc., Winooski, VT, US). The plate was incubated at rt in an orbital shaker and absorbance measured every 3 min.
Plasma crystallization was assessed based on slope measurement in the linear range between 6 and 24 min from plots of increase in absorbance versus logarithm of time. The efficacy of different myo-inositol phosphates derivatives in preventing in vitro formation of calcium phosphate crystals was assessed in human plasma samples using the slopes obtained between 6- and 24-min. Inhibition of crystallization was measured by comparing the slopes of the control sample (blank plasma) with those of samples containing the inhibitor as shown below: […]

Structures can show the parent of a compound that is named as a salt.

As for `C#CCOC1C(OP(=O)(O)O)C(OCC#C)C(OP(=O)(O)O)C(OP(=O)(O)O)C1OP(=O)(O)O` (stereo not drawn) [Compound 53, 4,6-O-Dipropargyl-myo-inositol-1,2,3,5-tetrakis(phosphate) octasodium salt], the EC50 is ≤ 5 µM.

In the case of `CC(=O)N1CCN(CCOC2C(OP(=O)(O)O)C(OCCN3CCN(C(C)=O)CC3)C(OP(=O)(O)O)C(OP(=O)(O)O)C2OP(=O)(O)O)CC1` (stereo not drawn) [Compound 34, 4,6-O-bis(2-(4-acetylpiperazin-1-yl)ethyl)-myo-inositol-1,2,3,5-tetrakis(phosphate) octasodium salt], the EC50 was 5 to 10 µM.

As for `O=P(O)(O)OC1C(OCCCCCn2cccn2)C(OP(=O)(O)O)C(OP(=O)(O)O)C(OP(=O)(O)O)C1OCCCCCn1cccn1` (stereo not drawn) [Compound 16, 4,6-O-bis(5-(1H-pyrazol-1-yl)pentyl)-myo-inositol-1,2,3,5-tetrakis(phosphate) octasodium salt], the EC50 was ≤ 5 µM.

As to `COCc1cn(CCCCCCOC2C(OP(=O)(O)O)C(OCCCCCCn3cc(C(=O)O)nn3)C(OP(=O)(O)O)C(OP(=O)(O)O)C2OP(=O)(O)O)nn1` (stereo not drawn) [Compound 41, 4-O-(6-(4-carboxy-1H-1,2,3-triazol-1-yl)hexyl)-6-O-(6-(4-(methoxymethyl)-1H-1,2,3-triazol-1-yl)hexyl)-myo-inositol-1,2,3,5-tetrakis(phosphate) nonasodium salt], the EC50 is ≤ 5 µM.

As for `O=P(O)(O)OC1C(OCCCCCCCCCCO)C(OP(=O)(O)O)C(OP(=O)(O)O)C(OP(=O)(O)O)C1OCCCCCCCCCCO` (stereo not drawn) [Compound 7, 4,6-O-bis(10-hydroxydecyl)-myo-inositol-1,2,3,5-tetrakis(phosphate) octasodium salt], the EC50 is > 10 µM.

In the case of `COCCCCCOC1C(OP(O)(O)=S)C(OCCCCCOC)C(OP(O)(O)=S)C(OP(O)(O)=S)C1OP(O)(O)=S` (stereo not drawn) [Compound 51, 4,6-O-bis(5-Methoxypentyl)-myo-inositol-1,2,3,5-tetrakis(thiophosphate) octasodium salt], the EC50 was > 10 µM.

Take `NCCCCCCCCCCO[C@@H]1[C@@H](OP(=O)(O)O)[C@H](OCCCCCCCCCCN)[C@@H](OP(=O)(O)O)[C@@H](OP(=O)(O)O)[C@H]1OP(=O)(O)O` [Compound 15, 4,6-O-bis(10-aminodecyl)-myo-inositol-1,2,3,5-tetrakis(phosphate) octasodium salt]: the EC50 is > 10 µM.

As to `CC(=O)NCCCCCO[C@@H]1[C@@H](OP(=O)(O)O)[C@H](OCCCCCNC(C)=O)[C@@H](OP(=O)(O)O)[C@@H](OP(=O)(O)O)[C@H]1OP(=O)(O)O` [Compound 27, 4,6-O-bis(5-acetamidopentyl)-myo-inositol-1,2,3,5-tetrakis(phosphate) octasodium salt], the EC50 was ≤ 5 µM.

For the compound `CCCCCCCCCCCCCCO[C@@H]1[C@@H](OP(=O)(O)O)[C@H](OCCCCCCCCCCCCCC)[C@@H](OP(=O)(O)O)[C@@H](OP(=O)(O)O)[C@H]1OP(=O)(O)O` [Compound 3, 4,6-O-di(tetradecyl)-myo-inositol-1,2,3,5-tetrakis(phosphate) octasodium salt], the EC50 is ≤ 5 µM.

Turning to `O=C(O)CCCOC1C(OP(=O)(O)O)C(OCCCC(=O)O)C(OP(=O)(O)O)C(OP(=O)(O)O)C1OP(=O)(O)O` (stereo not drawn) [Compound 52, 4,6-O-bis(3-carboxypropyl)-myo-inositol-1,2,3,5-tetrakis(phosphate) decasodium salt], the EC50 was ≤ 5 µM.

For `COCCCCCCCCC#CCCCCCCCCCOC1C(OP(=O)(O)O)C(OCCCCCCCCCC#CCCCCCCCCOC)C(OP(=O)(O)O)C(OP(=O)(O)O)C1OP(=O)(O)O` (stereo not drawn) [Compound 20, 4,6-O-bis(19-methoxynonadec-10-yn-1-yl)-myo-inositol-1,2,3,5-tetrakis(phosphate) octasodium salt], the EC50 was ≤ 5 µM.

`CCCNC(=O)NCCCCCOC1C(OP(=O)(O)O)C(OCCCCCNC(=O)NCCC)C(OP(=O)(O)O)C(OP(=O)(O)O)C1OP(=O)(O)O` (stereo not drawn) [Compound 30, 4,6-O-bis(5-(3-propylureido)pentyl)-myo-inositol-1,2,3,5-tetrakis(phosphate) octasodium salt]: the EC50 was ≤ 5 µM.
